According to paper PMC12332554, “Novel Benzofuran-3-yl-methyl and Aliphatic Azacyclics: Design, Synthesis, and In Vitro and In Silico anti-Alzheimer Disease Activity Studies” (ACS Omega, 2025):

Tests used:
[1] = biological target: human BChE (Homo sapiens, UniProt P06276); test: biochemical; conditions: read-out: BChE % Inhibition;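 further: inhibition of BChE determined with an adapted Ellman method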
Procedure: (§1) According to the modified Ellman approach outlined in our earlier works − the AChE and BChE inhibitory activities of the obtained compounds were evaluated.

[2] = biological target: T1, AChE (Homo sapiens, UniProt P22303); test: AChE inhibition, modified Ellman approach; type: biochemical; conditions: for inhibition at 1000 µM: 10^-3 M; for inhibition at 100 µM: 10^-4 M; for inhibition at 10 µM: 10^-5 M; for inhibition at 1 µM: 10^-6 M; for inhibition at 0.1 µM: 10^-7 M; for inhibition at 0.01 µM: 10^-8 M; for inhibition at 0.001 µM: 10^-9 M
T1 sequence (P22303 32-614): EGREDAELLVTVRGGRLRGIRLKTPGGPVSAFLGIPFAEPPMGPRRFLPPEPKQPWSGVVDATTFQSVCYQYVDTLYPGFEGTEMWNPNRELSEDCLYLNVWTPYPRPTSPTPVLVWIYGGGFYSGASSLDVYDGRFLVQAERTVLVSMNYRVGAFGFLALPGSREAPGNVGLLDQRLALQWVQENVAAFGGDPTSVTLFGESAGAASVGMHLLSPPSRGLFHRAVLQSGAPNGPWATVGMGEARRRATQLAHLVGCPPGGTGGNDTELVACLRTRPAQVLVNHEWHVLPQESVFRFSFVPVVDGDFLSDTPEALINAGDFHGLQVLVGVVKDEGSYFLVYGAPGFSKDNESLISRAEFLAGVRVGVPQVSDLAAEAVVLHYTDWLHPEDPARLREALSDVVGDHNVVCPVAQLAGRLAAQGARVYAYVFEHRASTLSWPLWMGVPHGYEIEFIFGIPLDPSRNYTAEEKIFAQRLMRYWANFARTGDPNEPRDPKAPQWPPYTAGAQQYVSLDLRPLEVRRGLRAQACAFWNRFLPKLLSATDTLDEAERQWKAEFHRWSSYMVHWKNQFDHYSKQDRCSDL
Procedure: as §1

[3] = biological target: T2, Human β-Secretase (BACE-1) (Homo sapiens, UniProt P56817); test: Human β-Secretase (BACE-1) Inhibitor Screening Assay kit (fluorometric); type: biochemical
T2 construct: purchased K720-100
T2 sequence (P56817 46-501): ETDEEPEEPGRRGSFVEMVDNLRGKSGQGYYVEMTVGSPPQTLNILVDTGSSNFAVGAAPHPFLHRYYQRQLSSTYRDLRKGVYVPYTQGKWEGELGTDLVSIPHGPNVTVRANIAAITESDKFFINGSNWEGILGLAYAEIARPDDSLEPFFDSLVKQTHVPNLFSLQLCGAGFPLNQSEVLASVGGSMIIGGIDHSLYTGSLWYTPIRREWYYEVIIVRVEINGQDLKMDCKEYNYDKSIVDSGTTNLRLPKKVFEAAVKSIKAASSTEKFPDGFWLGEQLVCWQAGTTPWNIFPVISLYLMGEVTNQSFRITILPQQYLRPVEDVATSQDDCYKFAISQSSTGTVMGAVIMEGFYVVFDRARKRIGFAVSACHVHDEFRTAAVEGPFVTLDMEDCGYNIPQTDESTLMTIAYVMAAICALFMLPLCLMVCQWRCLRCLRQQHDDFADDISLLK
Excerpt: The experimental procedure was based on the “Human β-Secretase (BACE-1) Inhibitor Screening Assay” kit (Human β-Secretase (BACE1) Inhibitor Screening Kit (Fluorometric)-Catalog no: K720-100) protocol based on the fluorometric method as performed previously.

[4] = biological target: T1, AChE; test: Kinetic studies of AChE enzyme inhibition (Lineweaver–Burk, secondary plot); type: biochemical; conditions: Lineweaver–Burk plots
Procedure: Enzyme kinetics studies were conducted to determine the mechanism of inhibition of AChE using a procedure similar to that of the inhibition assay for cholinesterase enzymes. […] Linear Lineweaver–Burk graphs were used to estimate the type of inhibition of this compound. The velocity curves of the substrates were recorded in the absence and presence of compound 4m. […] In each case, the initial velocity measurements were obtained at different substrate (ATC) concentrations ranging from 600 to 18.75 μM.
For this purpose, this compound was prepared at different concentrations (IC50, 2xIC50 and IC50/2). Moreover, a substrate (ATC) was used at various concentrations (600, 300, 150, 75, 37.5, and 18.75 μM). The enzyme kinetics assay was carried out as in our previous. − Lineweaver–Burk plots were formed using Microsoft Office Excel 2013. The K i values of the compound were easily calculated from the second plot with a common intercept on the x-axis (corresponding to –K i).

Chain of human BChE (P06276 29-602): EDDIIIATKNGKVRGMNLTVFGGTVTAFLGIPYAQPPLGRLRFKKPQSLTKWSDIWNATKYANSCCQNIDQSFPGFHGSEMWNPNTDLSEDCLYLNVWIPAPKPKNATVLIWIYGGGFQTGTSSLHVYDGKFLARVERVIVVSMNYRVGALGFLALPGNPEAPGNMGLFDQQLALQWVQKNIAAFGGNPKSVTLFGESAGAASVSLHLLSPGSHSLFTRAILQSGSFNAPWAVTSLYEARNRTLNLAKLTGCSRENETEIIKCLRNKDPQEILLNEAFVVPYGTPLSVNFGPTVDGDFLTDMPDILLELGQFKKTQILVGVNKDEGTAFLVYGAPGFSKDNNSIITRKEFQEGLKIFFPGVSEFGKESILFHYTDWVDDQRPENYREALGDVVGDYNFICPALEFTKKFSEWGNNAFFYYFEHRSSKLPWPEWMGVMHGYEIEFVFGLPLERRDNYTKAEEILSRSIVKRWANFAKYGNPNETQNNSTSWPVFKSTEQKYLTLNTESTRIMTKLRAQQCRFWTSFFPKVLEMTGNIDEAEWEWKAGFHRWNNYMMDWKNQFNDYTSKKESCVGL

| SMILES | inhibition at 100 µM [1] [%] | inhibition at 1000 µM [1] [%] | IC50 [2] [nM] | inhibition at 1000 µM [2] [%] | inhibition at 100 µM [2] [%] | inhibition at 10 µM [2] [%] | inhibition at 1 µM [2] [%] | inhibition at 0.1 µM [2] [%] | inhibition at 0.01 µM [2] [%] | inhibition at 0.001 µM [2] [%] | IC50 [3] [nM] | type of AChE inhibition [4] | β-secretase (BACE-1) IC50 [3] |
| --- | --- | --- | --- | --- | --- | --- | --- | --- | --- | --- | --- | --- | --- |
| O=C(c1ccccc1)c1oc2ccccc2c1CSC(=S)N1CCN(C(=O)c2ccco2)CC1 [4h, (2-Benzoylbenzofuran-3-yl)methyl 4-(Furan-2-carbonyl)piperazine-1-dithiocarbamate] | 28.3 ± 0.82 | 36.8 ± 0.76 | 54 ± 2 | 90.7 ± 1.24 | 84.2 ± 1.33 | 80.3 ± 1.1 | 75.9 ± 1.32 | 60.3 ± 0.97 | 45.7 ± 0.87 | 23 ± 0.78 | 155 ± 7 | – | – |
| O=C(c1ccccc1)c1oc2ccccc2c1CSC(=S)N1CCN(c2ccc([N+](=O)[O-])cc2)CC1 [4k, (2-Benzoylbenzofuran-3-yl)methyl 4-(4-Nitrophenyl)piperazine-1-dithiocarbamate] | 23.6 ± 0.83 | 30.4 ± 0.93 | – | 69 ± 1 | 41.6 ± 0.95 | – | – | – | – | – | – | – | – |
| O=C(c1ccccc1)c1oc2ccccc2c1CSC(=S)N1CCN(c2ncccn2)CC1 [4i, (2-Benzoylbenzofuran-3-yl)methyl 4-(Pyrimidine-2-yl)piperazine-1-dithiocarbamate] | 20.8 ± 0.88 | 28.6 ± 0.82 | – | 72.8 ± 1 | 43.6 ± 0.87 | – | – | – | – | – | – | – | – |
| O=C(c1ccccc1)c1oc2ccccc2c1CSC(=S)N1CCN(CCO)CC1 [4m, (2-Benzoylbenzofuran-3-yl)methyl 4-(2-Hydroxyethyl)piperazine-1-dithiocarbamate] | 31.1 ± 0.73 | 39.1 ± 0.76 | 29 ± 1 | 94.3 ± 1.64 | 89.4 ± 1.5 | 80.2 ± 1.48 | 75.4 ± 1.1 | 70.4 ± 1.21 | 44.7 ± 0.97 | 26.6 ± 0.72 | 84 ± 3 | reversible and mixed-type inhibitor | – |
| COc1ccc(N2CCN(C(=S)SCc3c(C(=O)c4ccccc4)oc4ccccc34)CC2)cc1 [4l, (2-Benzoylbenzofuran-3-yl)methyl 4-(4-Methoxyphenyl)piperazine-1-dithiocarbamate] | 21.4 ± 0.87 | 30.5 ± 0.87 | – | 72.3 ± 1.1 | 43.9 ± 0.98 | – | – | – | – | – | – | – | – |
| CC1CCCN(C(=S)SCc2c(C(=O)c3ccccc3)oc3ccccc23)C1 (stereo not drawn) [4c, (2-Benzoylbenzofuran-3-yl)methyl 3-Methylpiperidine-1-dithiocarbamate] | 22.1 ± 0.84 | 30.4 ± 0.9 | – | 71.7 ± 1.1 | 43 ± 0.89 | – | – | – | – | – | – | – | – |
| O=C(c1ccccc1)c1oc2ccccc2c1CSC(=S)N1CCOCC1 [4f, (2-Benzoylbenzofuran-3-yl)methyl Morpholine-4-dithiocarbamate] | 20.7 ± 0.86 | 28.4 ± 0.92 | – | 70.8 ± 1.12 | 41.3 ± 0.9 | – | – | – | – | – | – | – | – |
| CC1CCCCN1C(=S)SCc1c(C(=O)c2ccccc2)oc2ccccc12 (stereo not drawn) [4b, (2-Benzoylbenzofuran-3-yl)methyl 2-Methylpiperidine-1-dithiocarbamate] | 27.3 ± 0.79 | 33.9 ± 0.9 | – | 58.4 ± 1.9 | 43.4 ± 1.62 | – | – | – | – | – | – | – | – |
| O=C(c1ccccc1)c1oc2ccccc2c1CSC(=S)N1CCN(c2ccccc2)CC1 [4j, (2-Benzoylbenzofuran-3-yl)methyl 4-Phenylpiperazine-1-dithiocarbamate] | 24.9 ± 0.92 | 31.6 ± 0.73 | – | 75.6 ± 1.05 | 41 ± 0.79 | – | – | – | – | – | – | – | – |
| O=C(c1ccccc1)c1oc2ccccc2c1CSC(=S)N1CCN(c2ccc(Cl)cc2)CC1 [4n, (2-Benzoylbenzofuran-3-yl)methyl 4-(4-Chlorophenyl)piperazine-1-dithiocarbamate] | 20.1 ± 0.78 | 29.6 ± 0.86 | – | 76.7 ± 1.26 | 46.8 ± 0.86 | – | – | – | – | – | – | – | – |
| CN(C)CCCN1CCN(C(=S)SCc2c(C(=O)c3ccccc3)oc3ccccc23)CC1 [4g, (2-Benzoylbenzofuran-3-yl)methyl 4-(3-(Dimethylamino)propyl)piperazine-1-dithiocarbamate] | 21.7 ± 0.93 | 29.3 ± 0.89 | – | 69 ± 0.97 | 39.1 ± 0.87 | – | – | – | – | – | – | – | – |
| O=C(c1ccccc1)c1oc2ccccc2c1CSC(=S)N1CCCCC1 [4a, (2-Benzoylbenzofuran-3-yl)methylpiperidine-1-dithiocarbamate] | 25.8 ± 0.92 | 31.7 ± 0.89 | – | 65.2 ± 1.02 | 40.7 ± 0.98 | – | – | – | – | – | – | – | – |
| O=C(c1ccccc1)c1oc2ccccc2c1CSC(=S)N1CCN(c2ccc(F)cc2)CC1 [4o, (2-Benzoylbenzofuran-3-yl)methyl 4-(4-Fluorophenyl)piperazine-1-dithiocarbamate] | 30.3 ± 0.82 | 37.5 ± 0.75 | 41 ± 2 | 91.2 ± 1.57 | 83.6 ± 1.47 | 75 ± 1.67 | 65.8 ± 1.1 | 58.3 ± 1 | 48 ± 0.95 | 20.8 ± 0.74 | > 10000 | – | no significant inhibition |
| CC1CCN(C(=S)SCc2c(C(=O)c3ccccc3)oc3ccccc23)CC1 [4d, (2-Benzoylbenzofuran-3-yl)methyl 4-Methylpiperidine-1-dithiocarbamate] | 24.4 ± 0.93 | 28.3 ± 0.81 | – | 63.8 ± 1.59 | 40.7 ± 0.97 | – | – | – | – | – | – | – | – |
| O=C(c1ccccc1)c1oc2ccccc2c1CSC(=S)N1CCC(Cc2ccccc2)CC1 [4e, (2-Benzoylbenzofuran-3-yl)methyl 4-Benzylpiperidine-1-dithiocarbamate] | 29 ± 0.73 | 35.6 ± 0.88 | 49 ± 2 | 92.6 ± 1.38 | 88.6 ± 1.4 | 80.2 ± 1.11 | 74.3 ± 1.5 | 61.6 ± 0.92 | 45.4 ± 0.72 | 21.5 ± 0.86 | 134 ± 6 | – | – |
